Measurements: patent US8318787B2, “Prodrugs of (3,5-bis(4-fluorophenyl)tetrahydro-1H-oxazolo[3,4-C]oxazol-7A-yl)methanol and derivatives thereof” (University of Kansas, priority 2005, dated 2012)

What was measured:
Tubulin [1] = details: reported by Shintani et al. 1997; cited from earlier work
cellular microtubules = test: Immunostaining of cellular microtubules; type: cell-based; details: 1 and 10 μM
Method: Immunostaining of cellular microtubules—Cells were grown in monolayer on sterile slide cover slips in a 6-well plate and treated with paclitaxel or TH-237A for different periods of time. The cover slips were washed with phosphate-buffered saline and the cells fixed by treatment with 95% EtOH at −20° C. for 30 minutes. The cover slips were placed in a humidified chamber and treated with the primary antibody (a mouse anti-β-tubulin monoclonal antibody) for 2 hours to overnight at room temperature. This was followed by washing with phosphate-buffered saline and treatment with the secondary antibody (FITC goat anti-mouse) for 1 hour at room temperature. Cover slips were examined on a Nikon Optiphot fluorescence microscope.

microtubules [2] = test: Cold stability of microtubules; type: biochemical; details: 25 μM compound, on ice 15 minutes
Method: In another experiment, the cold stability of microtubles was investigated. Microtubules were formed from MAP-free tubulin (2 mg/ml) and MTP (2 mg/ml) at 37° C. A sample was centrifuged at 50,000×g to determine the amount of polymer formed. To three other samples DMSO, 20 μM paclitaxel or 400 μM TH-237A was added, and the samples were placed on ice for 15 minutes before centrifuging at 4° C. Pellets were dissolved in 0.1 ml of 0.1 M NaOH and protein determinations were made on the supernatants and pellets. Cold-induced depolymerization leads to an increase in the supernatant protein concentration.

in vitro = details: bovine, pH 7.4
Method: The BBMECs were grown on 0.4 μm polycarbonate membranes. […] Transport studies were performed in pH 7.4 standard buffer solutions, consisting of either Hank's balanced salt solution (HBSS) or phosphate buffered saline (PBS) supplemented with 0.63 mM CaCl2, 0.74 mM MgSO4, 5.3 mM glucose and 0.1 mM ascorbic acid (PBSA). Briefly, all studies were performed in 3 ml of PBSA in each donor and receiver chamber of the side-by-side diffusion chambers and stirred at 600 rpm at 37° C. The cells were allowed to equilibrate in PBSA for 30 minutes prior to each experiment and oriented such that apical or blood side of the cells face the donor chamber and the basolateral or brain side of the cells adhere to the polycarbonate membranes and face the receiver chamber of the diffusion apparatus. At each time point, a 100 μl sample was taken from the receiver compartment and immediately replaced with an equal volume of PBSA. The transport studies were performed in the presence or absence of CsA (5-10 μM). Monolayers were checked for trypan blue exclusion after experiments as well to assess general cell viability. The permeability of all monolayers used in these experiments was monitored for [^14C] sucrose leakage as a measure of potential TH-237A-induced loss of integrity. The radioactivity was quantified using liquid scintillation spectrometry.

microtubules [3] = test: Competitive binding of paclitaxel and TH-237A to microtubules; details: addition of 40 μM Taxol
Method: Competitive binding of paclitaxel and TH-237A—Microtubules were formed from MTP (2 mg/ml) in the presence of 0.5 mM GTP. […] […] After 10 minutes at 37° C., the microtubules were collected by centrifugation and dissolved in 0.1 ml of 0.1 M NaOH. Protein and radioactivity determinations of the dissolved microtubules were performed.

Tubulin [4] = test: Tubulin assembly centrifugation assay; type: biochemical; details: 1.0 μM compound
Method: In this example, the mechanism of TH-237A's neuroprotective effects was investigated. In a first experiment, the microtubule-stabilizing ability of TH-237A was investigated using a tubulin assembly centrifugation assay. Tubulin (1.0 mg/ml), free of microtubule-associated proteins (“MAPs”), was incubated in PEM buffer (0.1 M Pipes, 1 mM EGTA, 1 mM MgSO4, pH 6.9), 4% DMSO, various concentrations of paclitaxel or TH-237A, with or without 0.5 mM GTP, in a total volume of 0.1 ml for 15 minutes at 37° C. Samples were centrifuged at 50,000×g for 4 minutes in a Beckman TL-100 ultracentrifuge. Protein determinations were performed on the supernatants and the amount of polymer formed was calculated from the difference between the starting concentration and the supernatant concentration. The maximum concentration of polymer was taken to be that formed at 25 μM paclitaxel. An experiment was also done using a tubulin preparation containing microtubule-associated proteins (“MTP”) at a protein concentration of 2 mg/ml without GTP.

Row | Papp (in vitro) [×10⁻⁶ cm/s] | displacement of bound labeled TH-237A (100 μM) from microtubules (microtubules [3]) | SMILES | stimulation of tubulin polymerization relative to paclitaxel (Tubulin [1]) | polymerization of the microtubules in situ in the cells (cellular microtubules) | cold-induced depolymerization of microtubules prevented (microtubules [2]) [%] | % of tubulin polymerized (Tubulin [4]) [%]
1 |  |  | OCC12CO[C@H](c3ccc(F)cc3)N1[C@@H](c1ccc(F)cc1)OC2 [GS-164, (3R,5R)-(3,5-bis(4-fluorophenyl)tetrahydro-1H-oxazolo[3,4-c]oxazol-7a-yl)methanol] | one-tenth |  |  | 
2 | 5 | about 5% | CC(=O)O[C@H]1C(=O)[C@@]2(C)[C@H]([C@H](OC(=O)c3ccccc3)[C@]3(O)C[C@H](OC(=O)[C@H](O)[C@@H](NC(=O)c4ccccc4)c4ccccc4)C(C)=C1C3(C)C)[C@]1(OC(C)=O)CO[C@@H]1C[C@@H]2O [Taxol, Paclitaxel] |  | clearly evident | ~100 | 75
